Consider 33 compounds from patent publication US12391674B2, “Heterocyclic compounds for the treatment of epilepsy” (OTSUKA PHARMACEUTICAL CO., LTD., priority 2018, dated 2025).

One series has as its system ICR mice. Description: Rotarod test (motor coordination). Format: in vivo, mouse. The note with it: oral, dose 1 mg/kg, rotarod 1 hour after administration. The protocol:
This test is performed to evaluate the effect of the compound on the motor coordination. In this test example, the example compounds shown in Table 4 below were used as test compounds. Male ICR mice (Japan SLC, Inc., 5-6 weeks, 8 per group) were trained to remain on a fixed speed (15 rpm) rotating rod of rotarod apparatus (Muromachi Kikai Co., Ltd.) for 2 minutes. […] After 1 hour of oral administration, the mice were again placed on the rod accelerated from 4 rpm to 40 rpm over 5 minutes and the latency to fall off the rod was recorded for 200 seconds. The falling latency of the compound administration group was calculated as a relative value relative to the average value of the falling latency in the solvent administration group. Here, a coordination disorder of 25% or less was expressed as “A”, and a coordination disorder of more than 25% and 50% or less was expressed as “B”.
Consider `c1ccc(Oc2ncc(-c3ccc4nncn4n3)cn2)cc1` [Example 289], for which the Motor dysfunction entry was “A (a coordination disorder of 25% or less)”.

Turning to `N#Cc1cc(-c2cnc(Oc3ccccc3)nc2)ccn1` [Example 348], the Motor dysfunction entry was “A (a coordination disorder of 25% or less)”.

Consider `Nc1nc2ccc(-c3cnc(Oc4ccccc4)nc3)cn2n1` [Example 298], for which the Motor dysfunction result was “A (a coordination disorder of 25% or less)”.

The same series, now with this note: oral, dose 3 mg/kg, rotarod 1 hour after administration.
`Cc1nc(N)ccc1-c1cnc(Oc2ccccc2)nc1` [Example 59]: the Motor dysfunction result is “A (a coordination disorder of 25% or less)”.

Staying with this series, now noted: oral, dose 5 mg/kg, rotarod 1 hour after administration.
In the case of `COc1ccc(-c2cnc(Oc3cccnc3)nc2)nn1` [Example 74], the Motor dysfunction result was “A (a coordination disorder of 25% or less)”.

With `Cc1nc2cc(-c3cnc(Oc4ccccc4)nc3)ccn2c1C` [Example 204], the Motor dysfunction result is listed as “A (a coordination disorder of 25% or less)”.

Regarding `c1ccc(Oc2ncc(-c3ccc4ccnn4c3)cn2)cc1` [Example 151], the Motor dysfunction result is recorded as “A (a coordination disorder of 25% or less)”.

For `Fc1ccc(Oc2ncc(-c3ccc4nccn4c3)cn2)cc1` [Example 120], the Motor dysfunction result was “B (a coordination disorder of more than 25% and 50% or less)”.

On to `COc1ccc(-c2cnc(Oc3cccc(F)c3)nc2)nn1` [Example 4, 3-(2-(3-Fluorophenoxy)Pyrimidin-5-Yl)-6-Methoxypyridazine], for which the Motor dysfunction entry was “A (a coordination disorder of 25% or less)”.

Turning to `Nc1ccc(-c2cnc(Oc3cccc(OC(F)(F)F)c3)nc2)nn1` [Example 42], the Motor dysfunction result was “A (a coordination disorder of 25% or less)”.

For the compound `c1ccc(Oc2ncc(-c3ccc4nccn4n3)cn2)cc1` [Example 123, 6-(2-Phenoxypyrimidin-5-Yl) Imidazo[1,2-b]Pyridazine], the Motor dysfunction result is recorded as “A (a coordination disorder of 25% or less)”.

As for `c1ccc(Oc2ncc(-c3ccnnc3)cn2)cc1` [Example 31], the Motor dysfunction entry was “A (a coordination disorder of 25% or less)”.

With `c1ccc(Oc2ncc(-c3ccc4nncn4c3)cn2)cc1` [Example 129], the Motor dysfunction entry was “A (a coordination disorder of 25% or less)”.

On to `Clc1cccc(Oc2ncc(-c3ccc4nccn4c3)cn2)c1` [Example 163, 6-(2-(3-Chlorophenoxy)Pyrimidin-5-Yl) Imidazo[1,2-a]Pyridine], for which the Motor dysfunction entry was “A (a coordination disorder of 25% or less)”.

With `c1ccc(Oc2ncc(-c3ccc4[nH]cnc4c3)cn2)cc1` [Example 258], the Motor dysfunction result is “A (a coordination disorder of 25% or less)”.

Consider `COc1ccc(-c2cnc(Oc3ccc(F)cc3)nc2)nn1` [Example 5], for which the Motor dysfunction entry is “A (a coordination disorder of 25% or less)”.

As to `O=c1ccc(-c2cnc(Oc3ccccc3)nc2)n[nH]1` [Example 91, 6-(2-Phenoxypyrimidin-5-Yl)Pyridazin-3 (2H)-One], the Motor dysfunction result is “A (a coordination disorder of 25% or less)”.

On to `Cc1cn2cc(-c3cnc(Oc4ccccc4)nc3)ccc2n1` [Example 177], for which the Motor dysfunction result was “A (a coordination disorder of 25% or less)”.

The same series, now with this note: oral, dose 10 mg/kg, rotarod 1 hour after administration.
Regarding `O=c1ccc(-c2cnc(Oc3cccc(C(F)(F)F)c3)nc2)n[nH]1` [Example 99], the Motor dysfunction result is listed as “A (a coordination disorder of 25% or less)”.

As for `O=c1ccc(-c2cnc(Oc3ccccc3F)nc2)n[nH]1` [Example 95], the Motor dysfunction result was “A (a coordination disorder of 25% or less)”.

Staying with this series, now noted: oral, dose 30 mg/kg, rotarod 1 hour after administration.
Regarding `O=C1CCN(c2ccc(Oc3ccccc3)c(F)c2)C(=O)N1` [Example 329], the Motor dysfunction result was “A (a coordination disorder of 25% or less)”.

Consider `O=C1CCN(c2ccc(Oc3cccc(F)c3)cc2)C(=O)N1` [Example 302, 1-(4-(3-Fluorophenoxy)Phenyl)Dihydropyrimidine-2,4 (1H,3H)-Dione], for which the Motor dysfunction entry was “A (a coordination disorder of 25% or less)”.

For the compound `Nc1ccc(-c2cnc(Oc3ccccc3)nc2)cc1` [Example 239, 4-(2-Phenoxypyrimidin-5-Yl) Aniline], the Motor dysfunction result is given as “A (a coordination disorder of 25% or less)”.

Regarding `O=C1NCCCN1c1cnc(Oc2ccccc2)nc1` [Example 220, 1-(2-Phenoxypyrimidin-5-Yl)Tetrahydropyrimidin-2 (1H)-One], the Motor dysfunction entry is “A (a coordination disorder of 25% or less)”.

Take `O=C1CCN(c2ccc(Oc3ccccc3F)cc2)C(=O)N1` [Example 309]: the Motor dysfunction entry is reported as “A (a coordination disorder of 25% or less)”.

Take `Cc1ncccc1-c1cnc(Oc2ccccc2)nc1` [Example 34]: the Motor dysfunction result is recorded as “A (a coordination disorder of 25% or less)”.

Turning to `c1ccc(Oc2ncc(-c3cnc4ncnn4c3)cn2)cc1` [Example 188], the Motor dysfunction result is “A (a coordination disorder of 25% or less)”.

With `Nc1ccc(-c2cnc(Oc3ccccc3)nc2)c(N)n1` [Example 66], the Motor dysfunction result was “A (a coordination disorder of 25% or less)”.

Consider `O=c1[nH]cccc1-c1cnc(Oc2ccccc2)nc1` [Example 107], for which the Motor dysfunction entry is “A (a coordination disorder of 25% or less)”.

As for `O=C1CCN(c2ccc(Oc3ccccc3)cc2)C(=O)N1` [Example 303], the Motor dysfunction entry is listed as “A (a coordination disorder of 25% or less)”.

For the compound `O=C1COCCN1c1cnc(Oc2ccccc2)nc1` [Example 229, 4-(2-Phenoxypyrimidin-5-Yl) Morpholin-3-One], the Motor dysfunction entry was “A (a coordination disorder of 25% or less)”.

`O=C1CCN(c2ccc(Cc3ccc(OC(F)(F)F)cc3)cc2)C(=O)N1` [Example 340]: the Motor dysfunction result is on record as “A (a coordination disorder of 25% or less)”.

For the compound `CC1(C)CC(=O)NC(=O)N1c1ccc(Oc2ccccc2)cc1` [Example 337, 6,6-Dimethyl-1-(4-Phenoxyphenyl)Dihydropyrimidine-2,4 (1H,3H)-Dione], the Motor dysfunction entry is given as “A (a coordination disorder of 25% or less)”.

For another series, the system named is DBA/2 mice. Briefly: Audiogenic seizure model. Format: in vivo. The following applies: Mus musculus; DBA/2 mice, oral, dose 1 mg/kg, auditory stimulation 1 hour after administration; read-out: Seizure suppression. In outline:
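Male and female DBA/2 mice (3 weeks old, 8/group) dosed orally at 30 mg/kg in 5% gum arabic; 1 h later exposed to 12.6 kHz, 100-110 dB tone for 1 min or until tonic seizure. Maximum seizure score (0–4) recorded; suppression rate graded A (≥90%), B (70–<90%), C (50–<70%).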
As for `c1ccc(Oc2ncc(-c3ccc4nncn4n3)cn2)cc1` [Example 289], the inhibition in vivo at 1 mg/kg is greater than 90%.

As to `N#Cc1cc(-c2cnc(Oc3ccccc3)nc2)ccn1` [Example 348], the inhibition in vivo at 1 mg/kg is greater than 90%.

`Nc1nc2ccc(-c3cnc(Oc4ccccc4)nc3)cn2n1` [Example 298]: the inhibition in vivo at 1 mg/kg was greater than 90%.

Still in this series, the particulars now being: Mus musculus; DBA/2 mice, oral, dose 3 mg/kg, auditory stimulation 1 hour after administration; read-out: Seizure suppression.
For the compound `O=c1ccc(-c2cnc(Oc3ccccc3F)nc2)n[nH]1` [Example 95], the inhibition in vivo at 3 mg/kg is greater than 90%.

`Cc1nc(N)ccc1-c1cnc(Oc2ccccc2)nc1` [Example 59]: the inhibition in vivo at 3 mg/kg is greater than 90%.

The series is the same for the next values; noted with them: Mus musculus; DBA/2 mice, oral, dose 5 mg/kg, auditory stimulation 1 hour after administration; read-out: Seizure suppression.
As to `COc1ccc(-c2cnc(Oc3cccnc3)nc2)nn1` [Example 74], the inhibition in vivo at 5 mg/kg is greater than 90%.

For `c1ccc(Oc2ncc(-c3ccc4ccnn4c3)cn2)cc1` [Example 151], the inhibition in vivo at 5 mg/kg was greater than 90%.

Regarding `Fc1ccc(Oc2ncc(-c3ccc4nccn4c3)cn2)cc1` [Example 120], the inhibition in vivo at 5 mg/kg is greater than 90%.

For `COc1ccc(-c2cnc(Oc3cccc(F)c3)nc2)nn1` [Example 4, 3-(2-(3-Fluorophenoxy)Pyrimidin-5-Yl)-6-Methoxypyridazine], the inhibition in vivo at 5 mg/kg is greater than 90%.

In the case of `Nc1ccc(-c2cnc(Oc3cccc(OC(F)(F)F)c3)nc2)nn1` [Example 42], the inhibition in vivo at 5 mg/kg was greater than 90%.

Regarding `c1ccc(Oc2ncc(-c3ccc4nccn4n3)cn2)cc1` [Example 123, 6-(2-Phenoxypyrimidin-5-Yl) Imidazo[1,2-b]Pyridazine], the inhibition in vivo at 5 mg/kg is greater than 90%.

On to `c1ccc(Oc2ncc(-c3ccnnc3)cn2)cc1` [Example 31], for which the inhibition in vivo at 5 mg/kg is greater than 90%.

With `c1ccc(Oc2ncc(-c3ccc4nncn4c3)cn2)cc1` [Example 129], the inhibition in vivo at 5 mg/kg was greater than 90%.

Take `Clc1cccc(Oc2ncc(-c3ccc4nccn4c3)cn2)c1` [Example 163, 6-(2-(3-Chlorophenoxy)Pyrimidin-5-Yl) Imidazo[1,2-a]Pyridine]: the inhibition in vivo at 5 mg/kg is greater than 90%.

Take `c1ccc(Oc2ncc(-c3ccc4[nH]cnc4c3)cn2)cc1` [Example 258]: the inhibition in vivo at 5 mg/kg was greater than 90%.

In the case of `COc1ccc(-c2cnc(Oc3ccc(F)cc3)nc2)nn1` [Example 5], the inhibition in vivo at 5 mg/kg is greater than 90%.

For the compound `O=c1ccc(-c2cnc(Oc3ccccc3)nc2)n[nH]1` [Example 91, 6-(2-Phenoxypyrimidin-5-Yl)Pyridazin-3 (2H)-One], the inhibition in vivo at 5 mg/kg was greater than 90%.

For `Cc1cn2cc(-c3cnc(Oc4ccccc4)nc3)ccc2n1` [Example 177], the inhibition in vivo at 5 mg/kg lay in the range of 70 to 90%.

The same series, now with this note: Mus musculus; DBA/2 mice, oral, dose 10 mg/kg, auditory stimulation 1 hour after administration; read-out: Seizure suppression.
As to `O=c1ccc(-c2cnc(Oc3cccc(C(F)(F)F)c3)nc2)n[nH]1` [Example 99], the inhibition in vivo at 10 mg/kg was greater than 90%.

The series is the same for the next values; noted with them: Mus musculus; DBA/2 mice, oral, dose 30 mg/kg, auditory stimulation 1 hour after administration; read-out: Seizure suppression.
As for `O=C1CCN(c2ccc(Oc3ccccc3)c(F)c2)C(=O)N1` [Example 329], the inhibition in vivo at 30 mg/kg was in the range of 70 to 90%.

Regarding `O=C1CCN(c2ccc(Oc3cccc(F)c3)cc2)C(=O)N1` [Example 302, 1-(4-(3-Fluorophenoxy)Phenyl)Dihydropyrimidine-2,4 (1H,3H)-Dione], the inhibition in vivo at 30 mg/kg is greater than 90%.

As to `Cc1nc2cc(-c3cnc(Oc4ccccc4)nc3)ccn2c1C` [Example 204], the inhibition in vivo at 30 mg/kg is greater than 90%.

In the case of `Nc1ccc(-c2cnc(Oc3ccccc3)nc2)cc1` [Example 239, 4-(2-Phenoxypyrimidin-5-Yl) Aniline], the inhibition in vivo at 30 mg/kg is greater than 90%.

`O=C1NCCCN1c1cnc(Oc2ccccc2)nc1` [Example 220, 1-(2-Phenoxypyrimidin-5-Yl)Tetrahydropyrimidin-2 (1H)-One]: the inhibition in vivo at 30 mg/kg was greater than 90%.

`O=C1CCN(c2ccc(Oc3ccccc3F)cc2)C(=O)N1` [Example 309]: the inhibition in vivo at 30 mg/kg is greater than 90%.

As to `Cc1ncccc1-c1cnc(Oc2ccccc2)nc1` [Example 34], the inhibition in vivo at 30 mg/kg is greater than 90%.

Consider `c1ccc(Oc2ncc(-c3cnc4ncnn4c3)cn2)cc1` [Example 188], for which the inhibition in vivo at 30 mg/kg was greater than 90%.

On to `Nc1ccc(-c2cnc(Oc3ccccc3)nc2)c(N)n1` [Example 66], for which the inhibition in vivo at 30 mg/kg was greater than 90%.

For `O=c1[nH]cccc1-c1cnc(Oc2ccccc2)nc1` [Example 107], the inhibition in vivo at 30 mg/kg was greater than 90%.

In the case of `O=C1CCN(c2ccc(Oc3ccccc3)cc2)C(=O)N1` [Example 303], the inhibition in vivo at 30 mg/kg is greater than 90%.

Take `O=C1COCCN1c1cnc(Oc2ccccc2)nc1` [Example 229, 4-(2-Phenoxypyrimidin-5-Yl) Morpholin-3-One]: the inhibition in vivo at 30 mg/kg is greater than 90%.

`O=C1CCN(c2ccc(Cc3ccc(OC(F)(F)F)cc3)cc2)C(=O)N1` [Example 340]: the inhibition in vivo at 30 mg/kg fell in the range of 70 to 90%.

Regarding `CC1(C)CC(=O)NC(=O)N1c1ccc(Oc2ccccc2)cc1` [Example 337, 6,6-Dimethyl-1-(4-Phenoxyphenyl)Dihydropyrimidine-2,4 (1H,3H)-Dione], the inhibition in vivo at 30 mg/kg is greater than 90%.
